These results are taken from patent publication US20070167353A1, “PRODRUG COMPOSITION” (priority 2003, published 2007).

For series [1], the target named is T1, human dipeptide transporter, hPept1 (Homo sapiens, UniProt P46059).
T1 sequence (P46059 1-708): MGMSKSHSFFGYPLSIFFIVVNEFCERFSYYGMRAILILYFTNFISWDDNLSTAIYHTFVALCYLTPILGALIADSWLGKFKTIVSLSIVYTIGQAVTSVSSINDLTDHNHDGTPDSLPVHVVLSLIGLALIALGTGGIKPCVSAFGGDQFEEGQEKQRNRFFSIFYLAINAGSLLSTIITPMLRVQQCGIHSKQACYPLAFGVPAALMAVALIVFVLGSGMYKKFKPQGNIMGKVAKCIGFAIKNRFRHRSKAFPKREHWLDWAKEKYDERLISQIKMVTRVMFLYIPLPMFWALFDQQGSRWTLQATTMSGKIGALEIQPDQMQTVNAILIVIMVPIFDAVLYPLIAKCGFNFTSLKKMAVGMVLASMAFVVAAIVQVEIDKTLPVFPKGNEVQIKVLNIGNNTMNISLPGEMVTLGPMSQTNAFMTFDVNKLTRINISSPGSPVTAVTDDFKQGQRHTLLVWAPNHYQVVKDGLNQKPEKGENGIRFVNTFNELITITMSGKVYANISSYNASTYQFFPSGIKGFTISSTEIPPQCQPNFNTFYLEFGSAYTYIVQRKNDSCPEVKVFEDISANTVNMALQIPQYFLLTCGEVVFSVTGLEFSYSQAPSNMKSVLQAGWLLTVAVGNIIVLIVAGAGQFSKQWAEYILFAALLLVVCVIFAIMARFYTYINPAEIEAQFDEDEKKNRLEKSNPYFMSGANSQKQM
The conditions noted are these: for HeLa/hPEPT1 uptake: pH 6.

In series [2] the test system is KB cell. The series is described as follows: KB cell cytotoxicity. Particulars: read-out: KB cell cytotoxicity (IC50).
A further series relates to vaccinia virus. The series is described as follows: microbe, parasite or virus in culture. The conditions noted are these: read-out: Vaccinia Plaque Reduction (IC50). It is filed as cell-based.
Series [3] is described as follows: Intestinal absorption after direct duodenal injection in anesthetized rats, plasma by LC/MS/MS. Particulars: for AUC0-4 hr of Prodrug: rat plasma, duodenal injection of the named prodrug. On the procedure: The systemic plasma profiles of the prodrug, Ara A, and its main metabolite, Ara H are then monitored by removing plasma from a jugular vein cannula over a 4 hour period and assaying by LC/MS/MS assay.
Animals were dosed with Ara A at a level of 1.5 mg/rat via direct duodenal injection into anesthetized rats (n=2 per compound). Plasma samples were taken from the jugular vein at 0, 1, 2, and 4 hours from the jugular vein and were assayed for Ara A (▪), and Ara H (♦) by LC/MS/MS.
Animals were dosed with 5′-O-L isoleucyl Ara A prodrug at a level of 2.7 mg/rat via direct duodenal injection into anesthetized rats (n=3 per compound). Plasma samples were taken from the jugular vein at 0, 0.5, 1, 2, and 4 hours from the jugular vein and were assayed for prodrug (□), Ara A (▪), and Ara H (♦) by LC/MS/MS.
FIG. 6 is a graph showing mean plasma profiles of Ara A, Ara H, and 5′-O-D Isoleucyl Ara A after administration of 5′-O-D Isoleucyl Ara A into the duodenum of a rat. Animals were dosed with 5′-O-D Isoleucyl Ara A prodrug at a level of 2.7 mg/rat via direct duodenal injection into anesthetized rats (n=2). Plasma samples were taken from the jugular vein at 0, 0.5, 1, 2, and 4 hours from the jugular vein and were assayed for prodrug (□), Ara A (▪), and Ara H (♦) by LC/MS/MS.
FIG. 7 is a graph showing mean plasma profiles of Ara A, Ara H, and 5′-O-L Valyl Ara A after administration of 5′-O-L Valyl Ara A into the duodenum of a rat. Animals were dosed with 5′-O-L Valyl Ara A prodrug at a level of 3 mg/rat via direct duodenal injection into anesthetized rats (n=2). Plasma samples were taken from the jugular vein at 0, 0.5, 1, 2, and 4 hours from the jugular vein and were assayed for prodrug (□), Ara A (▪), and Ara H (♦) by LC/MS/MS.
FIG. 8 is a graph showing mean plasma profiles of Ara A, Ara H, and 5′-O-D Valyl Ara A after administration of 5′-O-D Valyl Ara A into the duodenum of a rat. Animals were dosed with 5′-O-D Valyl Ara A prodrug at a level of 3.0 mg/rat via direct duodenal injection into anesthetized rats (n=3). Plasma samples were taken from the jugular vein at 0, 0.5, 1, 2, and 4 hours from the jugular vein and were assayed for prodrug (□), Ara A (▪), and ara H (♦) by LC/MS/MS.
FIG. 9 is a graph showing mean plasma profiles of Ara A, Ara H, and 5′-O-Glycyl Ara A after administration of 5′-O-Glycyl Ara A into the duodenum of a rat. Animals were dosed with 5′-O-Glycyl Ara A prodrug at a level of 3.0 mg/rat via direct duodenal injection into anesthetized rats (n=2). Plasma samples were taken from the jugular vein at 0, 0.5, 1, 2, and 4 hours from the jugular vein and were assayed for prodrug (□), Ara A (▪), and Ara H (♦) by LC/MS/MS.

The next series has as its system Caco-2 monolayers. The series can be described thus: Caco-2 monolayer transport and stability. The series is classed as in vitro ADME. Particulars: for Permeability: apical to basolateral, 0.2 mM drug, apical pH 6.0, n = 3; for Stability (% remaining) Apical chamber (donor): percent prodrug remaining in donor solution at 120 minutes; for Stability (% remaining) Basolateral chamber (receiver): percent prodrug remaining in receiver solution at 120 minutes. The procedure: (§1) The transepithelial transport of Ara A, 5′-O-L-valyl Ara A, 5′-O-L-isoleucyl Ara A is tested in Caco-2 monolayers grown in transwell filters following standard procedures as described in detail in Landowski, C. P. et al., Pharm Res, 2005. 22(9): p. 1510-8. In these experiments, transport studies are performed 21 days post-seeding. The assay is initiated by adding drug transport solution (0.2 mM drug in MES buffer, pH 6.0 containing 5 mM D-glucose, 5 mM MES, 1 mM CaCl2, 1 mM MgCl2, 150 mM NaCl, 3 mM KCl, 1 mM NaH2PO4) to the apical chamber of the Caco-2 insert. Two hundred microliter aliquots are withdrawn from the basolateral chamber at predetermined intervals and replaced with fresh HEPES pH 7.4 buffer. The epithelial integrity of representative cell monolayers is assessed by monitoring transepithelial resistance. In these assays, the stability of the drug in both chambers of the insert is also monitored. […] Importantly, the prodrugs are stable, showing minimal metabolism to Ara A and Ara-H over a 2-hour time frame.
Background: Caco-2 monolayers are a common model of the intestinal barrier.

For series [4] the following is noted: Caco-2 cell homogenates, n = 3.
Series [5] concerns KB cell.
For series [6] the following is noted: buffer.
The nature of another series: KB cell cytotoxicity. Particulars: human, KB cells.
The nature of series [7]: Caco-2 monolayer transport and stability. The conditions noted are these: human, Caco-2, pH 6. It is filed as in vitro ADME. The procedure: as §1
A further series deals with adenosine deaminase. The series is described as follows: Stability in the presence of adenosine deaminase. The series is classed as biochemical. The conditions noted are these: FIG. 3A.
The test system of another series is Cowpox. The series can be described thus: organism not typed. Particulars: read-out: Cowpox Plaque Reduction (IC50). It is filed as cell-based.
A short description of series [8]: Solubility testing in water. It is filed as physicochemical. The conditions noted are these: thermodynamic from solid; water added dropwise to 5 mg. On the procedure: Water is added dropwise to 5 mg of each prodrug with intermittent stirring until the drug is fully dissolved. All of the Ara A prodrugs dissolved prior to the addition of 0.19 ml of water or at a concentration>26 mg/ml water. In contrast, unmodified Ara A is poorly soluble (<0.5 mg/ml) under these conditions.

The mark [9] stands for this setting: Orthopoxvirus vaccinia, HFF, 72 h.

SMILES strings stand for the structures. Like-named read-outs stand apart in the source and are kept apart here. Bounds are passed on as bounds.

Broadly, the IC50 is the concentration needed to halve the response being measured. The term Papp A→B denotes the apparent permeability from the apical to the basolateral side of a cell layer. Low values mean poor permeation, high ones ready permeation. What is called solubility is the concentration that dissolves in the medium under given conditions.

On to `CC[C@H](C)[C@H](N)C(=O)OC[C@H]1O[C@@H](n2cnc3c(N)ncnc32)[C@@H](O)[C@@H]1O` [5′-O-L-isoleucyl Ara A], for which, in [1], the hPepT1/Control was determined as 26.9 and the HeLa/hPEPT1 uptake was determined as 202.0 ± 4.8. Further, the half-maximal inhibitory concentration (IC50) with KB cell [2] is above 100 µM. In addition, the 50% inhibitory concentration (IC50) with vaccinia virus (HFF cells, 3 days) turned out to be 4.5 µM. Also, the “AUC0-4 hr of Prodrug” value in series [3] was 658 ± 314 ng·h/mL. The “fold increase in circulating Ara A levels over dosing with Ara A” value in [3] (rat, duodenal injection) is reported as above 20 fold. Moreover, in series [3] (rat, in vivo), the “percent of total drug measured in plasma found to be Ara-H” value is around 15%, the “percent of total drug measured in plasma present as Ara A” value is recorded as “approximately 17%” and the “percent of total drug measured in plasma present as prodrug” value is reported as around 68%. For the same compound, in the series on Caco-2 monolayers, the Permeability is 5.66 ± 0.14 ×10^−6, cm/s; the “Stability (% remaining) Apical chamber (donor)” value amounted to 89.6%; the “Stability (% remaining) Basolateral chamber (receiver)” value is 77.5%. In series [4], the “t1/2 Caco-2” value worked out at 27.0 ± 1.3 min.
Regarding `Nc1ncnc2c1ncn2[C@@H]1O[C@H](COC(=O)[C@@H](N)Cc2ccccc2)[C@@H](O)[C@@H]1O` [5′-O-L-phenylalanyl Ara A], the half-inhibitory concentration (IC50) is 20 µM in the series with vaccinia virus (HFF cells, 3 days) and above 100 µM in the series with KB cell [5]. Besides, in series [6], the “t1/2 pH 7.4” value came to 420.9 ± 40.1 min. Further, in series [4], the “t1/2 Caco-2” value was 3.5 ± 1.0 min.
As to `Nc1ncnc2c1ncn2[C@@H]1O[C@H](COC(=O)[C@@H]2CCCN2)[C@@H](O)[C@@H]1O` [5′-O-L-prolyl Ara A], the hPepT1/Control in series [1] is 1.06. The compound also returned a HeLa/hPEPT1 uptake in series [1] of 40.8 ± 1.0. In addition, the IC50 amounted to 12 µM in the series on vaccinia virus (HFF cells, 3 days) and 45 µM in the series on KB cell [5]. The “t1/2 pH 7.4” value in [6] is recorded as 20.1 ± 1.0 min. Further, in series [4], the “t1/2 Caco-2” value amounted to 1.3 ± 0.005 min.
In [1], `CC(C)[C@H](N)C(=O)OC[C@H]1O[C@@H](n2cnc3c(N)ncnc32)[C@@H](O)[C@@H]1O` [5′-O-L-valyl Ara A] yielded a hPepT1/Control of 20.7 and a HeLa/hPEPT1 uptake of 80.3 ± 1.1. The 50% inhibitory concentration (IC50) in the series on KB cell [2] is 65 µM. Besides, the IC50 in the series with vaccinia virus (HFF cells, 3 days) was 12 µM. Further, the “AUC0-4 hr of Prodrug” value in series [3] stood at 195 ± 25 ng·h/mL. In addition, in series [3] (rat, duodenal injection), the “plasma Ara A levels after dosing (in words)” value is on record as “Increased levels of plasma Ara A”. In the series with Caco-2 monolayers, the Permeability was 3.86 ± 0.03 ×10^−6, cm/s; the “Stability (% remaining) Apical chamber (donor)” value is listed as 82.1%; the “Stability (% remaining) Basolateral chamber (receiver)” value stood at 62.0%. The “t1/2 Caco-2” value in series [4] turned out to be 11.1 ± 0.4 min.
Consider `Nc1ncnc2c1ncn2[C@@H]1O[C@H](CO)[C@@H](O)[C@@H]1O` [Ara A, Adenine 9-beta-D-arabinofuranoside, reference compound], for which the IC50 was above 100 µM in “KB cell cytotoxicity”, 5 µM with vaccinia virus (setting [9]) and 6.5 µM in the series with Cowpox. This compound returned an apical-to-basolateral permeability (Papp A→B) at 2 h, 0.2 mM in [7] of 1.42 ± 0.05 ×10⁻⁶ cm/s. For the same compound, in the series on adenosine deaminase, the “deamination by adenosine deaminase (in words)” value is recorded as “rapidly hydrolyzed”. Further, the solubility in series [8] was below 500 µg/mL.
As to `O=c1[nH]cnc2c1ncn2[C@@H]1O[C@H](CO)[C@@H](O)[C@@H]1O` [Ara-H, 9-(beta-D-arabinofuranosyl) hypoxanthine], the concentration for half-maximal inhibition (IC50) in the series with Cowpox was above 100 µM.
On to `Nc1ccn(C[C@@H](CO)OCP(=O)(O)O)c(=O)n1` [Cidofovir, reference compound], for which the values for the IC50 in the series “KB cell cytotoxicity”, with vaccinia virus (setting [9]) and in the series on Cowpox were above 100 µM, 26 µM and 30 µM, respectively.
